Assay results published in the supplement of paper PMC11451515.

Assays:
Assay in all cases: AUC of viability dose-response curve (% viability x log10 dose units); higher = less sensitive
Conditions in all cases: 48 h
[1] = system: P12-Ichikawa
Outline: (§1)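 Over 48 h at 37°C, leukemia cells in 1536-well plates (500 or 1000 cells/well), adapted to each medium, received library compounds in DMSO at 11 threefold doses from 47 μM to 0.79 nM. CellTiter-Glo One luminescence, normalised per plate to DMSO and cell-free wells, was fitted by a four-parameter log-logistic function of log10 dose. The area under the curve was then integrated by trapezoidal rule, after scaling curves above full viability and removing those that failed quality control.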

[2] = system: NOMO1
Outline: as §1

[3] = system: SEM cells
Outline: as §1

[4] = RPMI 5 mM glucose + 10% dialyzed FBS

SMILES	AUC of viability dose-response curve ([1]; HPLM + 10% dialyzed FBS)	AUC of viability dose-response curve ([1]; RPMI 5 mM glucose + 10% FBS)	AUC of viability dose-response curve [1, 4]	AUC of viability dose-response curve ([2]; HPLM + 10% dialyzed FBS)	AUC of viability dose-response curve ([2]; RPMI 5 mM glucose + 10% FBS)	AUC of viability dose-response curve [2, 4]	AUC of viability dose-response curve ([3]; HPLM + 10% dialyzed FBS)	AUC of viability dose-response curve ([3]; RPMI 5 mM glucose + 10% FBS)	AUC of viability dose-response curve [3, 4]
CN(C)C1CCN(C(=O)c2ccc(NC(=O)Nc3nc(N4CCOCC4)nc(N4CCOCC4)n3)cc2)CC1	340	270	275	271	296	272	252	248	247
CCc1ccc(CCOc2ccc(CC3SC(=O)NC3=O)cc2)nc1 (centres undefined)	450	473	469	448	442	460	444	402	474
N[S+]([O-])(=O)C1=C(Cl)C=C2\N=C/N[S+]([O-])(=O)C2=C1	459	456	468	465	470	475	380	426	418
O=c1[nH]c(=O)n([C@H]2C[C@H](O)[C@@H](CO)O2)cc1/C=C/Br	357	472	477	425	456	454	436	460	469
CCN1CCN(c2ccc(Nc3cc(N(C)C(=O)Nc4c(Cl)c(OC)cc(OC)c4Cl)ncn3)cc2)CC1	429	428	423	372	395	399	347	316	351
O=C1c2ccccc2-[n+]2ccc3c([nH]c4ccccc43)c21	403	405	407	385	398	390	291	332	311
